Data reported in PubChem BioAssay (NCI).
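Dose response: 5 concentrations. Exposure: 48 h. Format: 96-well plates. Endpoint: linear interpolation; highest concentration if not reached. GI50: concentration for 50% inhibition of growth. The concentration for full growth arrest is given as TGI.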

Key:
Experiment in all cases: inhibition of tumour cell growth, NCI panel, 48 h
[1] = test system: T-47D breast
[2] = test system: OVCAR-4 ovarian
[3] = test system: TK-10 renal
[4] = test system: HCT-116 colon
[5] = test system: SF-539 CNS
[6] = test system: SR leukemia
[7] = test system: SK-OV-3 ovarian
[8] = test system: SK-MEL-5 melanoma
[9] = test system: MCF7 breast
[10] = test system: ACHN renal
[11] = test system: UACC-62 melanoma
[12] = test system: OVCAR-5 ovarian
[13] = test system: SK-MEL-2 melanoma
[14] = test system: LOX IMVI melanoma
[15] = test system: UACC-257 melanoma
[16] = test system: SNB-19 CNS
[17] = test system: HCT-15 colon
[18] = test system: MDA-MB-435
[19] = test system: HT29 colon
[20] = test system: NCI-H226 lung
[21] = test system: RPMI-8226 leukemia
[22] = test system: M14 melanoma
[23] = test system: HS 578T breast
[24] = test system: CAKI-1 renal
[25] = test system: BT-549 breast
[26] = test system: UO-31 renal
[27] = test system: U251 CNS
[28] = test system: K-562 leukemia
[29] = test system: RXF 393 renal
[30] = test system: MALME-3M melanoma
[31] = test system: HCC-2998 colon
[32] = test system: A498 renal
[33] = test system: KM12 colon
[34] = test system: SF-295 CNS
[35] = test system: HOP-92 NSCLC
[36] = test system: EKVX NSCLC
[37] = test system: SN12C renal
[38] = test system: 786-0 renal
[39] = test system: SF-268 CNS
[40] = test system: NCI-H460 lung
[41] = test system: HOP-62 NSCLC
[42] = test system: SK-MEL-28 melanoma
[43] = test system: A549 NSCLC
[44] = test system: PC-3 prostate
[45] = test system: COLO 205 colon
[46] = test system: MDA-MB-231 breast
[47] = test system: NCI/ADR-RES ovarian
[48] = test system: NCI-H23 lung
[49] = test system: OVCAR-8 ovarian
[50] = test system: SW-620 colon
[51] = test system: DU-145 prostate
[52] = test system: CCRF-CEM leukemia
[53] = test system: MOLT-4 leukemia
[54] = test system: SNB-75 CNS
[55] = test system: IGROV1 ovarian
[56] = test system: OVCAR-3 ovarian
[57] = test system: HL-60(TB) leukemia

Structure (SMILES): C=C(C=O)[C@@H]1CC[C@]2(CO)CC[C@]3(C)[C@H](CC[C@@H]4[C@@]5(C)CCCNC(C)(C)[C@@H]5CC[C@]43C)[C@@H]12
- GI50 [1]: 2.76 µM
- TGI [1]: 17.9 µM
- GI50 [2]: 6.16 µM
- TGI [2]: 23.2 µM
- GI50 [3]: 28.5 µM
- TGI [3]: 69.9 µM
- GI50 [4]: 1.8 µM
- TGI [4]: 3.57 µM
- GI50 [5]: 7.78 µM
- TGI [5]: 20.4 µM
- GI50 [6]: 1.75 µM
- TGI [6]: 3.74 µM
- GI50 [7]: 40 µM
- TGI [7]: > 100 µM
- GI50 [8]: 10.3 µM
- TGI [8]: 22.3 µM
- GI50 [9]: 1.65 µM
- TGI [9]: 5.14 µM
- GI50 [10]: 15 µM
- TGI [10]: 31.2 µM
- GI50 [11]: 13.1 µM
- TGI [11]: 27.9 µM
- GI50 [12]: 9.72 µM
- TGI [12]: 23 µM
- GI50 [13]: 12 µM
- TGI [13]: 27.2 µM
- GI50 [14]: 1.74 µM
- TGI [14]: 3.3 µM
- GI50 [15]: 11.3 µM
- TGI [15]: 31.7 µM
- GI50 [16]: 8.56 µM
- TGI [16]: 21.3 µM
- GI50 [17]: 1.99 µM
- TGI [17]: 7.4 µM
- GI50 [18]: 4.8 µM
- TGI [18]: 18.2 µM
- GI50 [19]: 2.31 µM
- TGI [19]: 5.95 µM
- GI50 [20]: 5.09 µM
- TGI [20]: 23.6 µM
- GI50 [21]: 2.96 µM
- TGI [21]: 13.9 µM
- GI50 [22]: 7.77 µM
- TGI [22]: 23.3 µM
- GI50 [23]: 9.64 µM
- TGI [23]: 50.6 µM
- GI50 [24]: 14.3 µM
- TGI [24]: 31.8 µM
- GI50 [25]: 8.94 µM
- TGI [25]: 22.8 µM
- GI50 [26]: 14.9 µM
- TGI [26]: 38.7 µM
- GI50 [27]: 4.43 µM
- TGI [27]: 17.8 µM
- GI50 [28]: 1.93 µM
- TGI [28]: 5.44 µM
- GI50 [29]: 3.83 µM
- TGI [29]: 16.3 µM
- GI50 [30]: 10.8 µM
- TGI [30]: 26.4 µM
- GI50 [31]: 1.91 µM
- TGI [31]: 3.67 µM
- GI50 [32]: 0.57 µM
- TGI [32]: 93.6 µM
- GI50 [33]: 3.01 µM
- TGI [33]: 9.33 µM
- GI50 [34]: 13.8 µM
- TGI [34]: 27.6 µM
- GI50 [35]: 2.12 µM
- TGI [35]: 7.64 µM
- GI50 [36]: 11.1 µM
- TGI [36]: 30.8 µM
- GI50 [37]: 14 µM
- TGI [37]: 35.2 µM
- GI50 [38]: 14.9 µM
- TGI [38]: 32.3 µM
- GI50 [39]: 16.1 µM
- TGI [39]: 50.8 µM
- GI50 [40]: 11 µM
- TGI [40]: 25.9 µM
- GI50 [41]: 14.6 µM
- TGI [41]: 31.3 µM
- GI50 [42]: 3.15 µM
- TGI [42]: 12.6 µM
- GI50 [43]: 15.5 µM
- TGI [43]: 46 µM
- GI50 [44]: 2.91 µM
- TGI [44]: 18.8 µM
- GI50 [45]: 12.8 µM
- TGI [45]: 29.4 µM
- GI50 [46]: 14 µM
- TGI [46]: 31.5 µM
- GI50 [47]: 4.15 µM
- TGI [47]: 23 µM
- GI50 [48]: 6.16 µM
- TGI [48]: 21.1 µM
- GI50 [49]: 7.29 µM
- TGI [49]: 78.8 µM
- GI50 [50]: 2.01 µM
- TGI [50]: 5.52 µM
- GI50 [51]: 7.13 µM
- TGI [51]: 20.3 µM
- GI50 [52]: 2.21 µM
- TGI [52]: 6.22 µM
- GI50 [53]: 3.64 µM
- TGI [53]: 16 µM
- GI50 [54]: 9.07 µM
- TGI [54]: 61.8 µM
- GI50 [55]: 3.34 µM
- TGI [55]: 13.1 µM
- GI50 [56]: 3.35 µM
- TGI [56]: 11.9 µM
- GI50 [57]: 1.96 µM
- TGI [57]: 4.36 µM

Structure (SMILES): CC1(C)[C@@H](O)CC[C@]2(C)[C@H]3CC[C@@H]4[C@H]5[C@H](C(=O)/C=C\c6ccccn6)CC[C@]5(O)CC[C@@]4(C)[C@]3(C)CC[C@@H]12
- GI50 [1]: 1.52 µM
- TGI [1]: 8.62 µM
- GI50 [2]: 3.92 µM
- TGI [2]: 46.4 µM
- GI50 [3]: 3.23 µM
- TGI [3]: 9.31 µM
- GI50 [5]: 2.34 µM
- TGI [5]: 6.34 µM
- GI50 [6]: 1.71 µM
- TGI [6]: 14.5 µM
- GI50 [7]: 5.35 µM
- TGI [7]: 30.7 µM
- GI50 [8]: 1.63 µM
- TGI [8]: 3.05 µM
- GI50 [9]: 0.768 µM
- TGI [9]: 4.54 µM
- GI50 [10]: 2.33 µM
- TGI [10]: 6.28 µM
- GI50 [11]: 1.74 µM
- TGI [11]: 3.95 µM
- GI50 [12]: 2.89 µM
- TGI [12]: 7.92 µM
- GI50 [13]: 2.61 µM
- TGI [13]: 7.18 µM
- GI50 [15]: 3.25 µM
- TGI [15]: 39.2 µM
- GI50 [16]: 2.77 µM
- TGI [16]: 10.8 µM
- GI50 [17]: 1.9 µM
- TGI [17]: 5.52 µM
- GI50 [18]: 1.76 µM
- TGI [18]: 3.75 µM
- GI50 [19]: 3.33 µM
- TGI [19]: > 100 µM
- GI50 [20]: 3.05 µM
- TGI [20]: 34.5 µM
- GI50 [21]: 1.76 µM
- TGI [21]: 5.35 µM
- GI50 [22]: 2.26 µM
- TGI [22]: 5.87 µM
- GI50 [23]: 6.84 µM
- TGI [23]: > 100 µM
- GI50 [24]: 2.02 µM
- TGI [24]: 8.4 µM
- GI50 [25]: 1.96 µM
- TGI [25]: 3.57 µM
- GI50 [26]: 1.6 µM
- TGI [26]: 3.23 µM
- GI50 [27]: 1.61 µM
- TGI [27]: 3.1 µM
- GI50 [28]: 2.25 µM
- TGI [28]: > 100 µM
- GI50 [29]: 1.74 µM
- TGI [29]: 3.15 µM
- GI50 [30]: 2.16 µM
- TGI [30]: 4.78 µM
- GI50 [31]: 1.94 µM
- TGI [31]: 3.52 µM
- GI50 [32]: 1.66 µM
- TGI [32]: 4.33 µM
- GI50 [33]: 1.85 µM
- TGI [33]: 3.96 µM
- GI50 [34]: 2.61 µM
- TGI [34]: 8.55 µM
- GI50 [35]: 1.34 µM
- TGI [35]: 3.74 µM
- GI50 [36]: 2.62 µM
- TGI [36]: 13.3 µM
- GI50 [37]: 3.08 µM
- TGI [37]: > 100 µM
- GI50 [38]: 2.23 µM
- TGI [38]: 4.73 µM
- GI50 [39]: 2.38 µM
- TGI [39]: 8.44 µM
- GI50 [40]: 1.9 µM
- TGI [40]: 4.83 µM
- GI50 [41]: 1.8 µM
- TGI [41]: 4.99 µM
- GI50 [42]: 2.04 µM
- TGI [42]: 4.13 µM
- GI50 [43]: 2.77 µM
- TGI [43]: 9.37 µM
- GI50 [44]: 2.1 µM
- TGI [44]: 6.24 µM
- GI50 [46]: 3.04 µM
- TGI [46]: > 100 µM
- GI50 [49]: 3.37 µM
- TGI [49]: > 100 µM
- GI50 [50]: 1.93 µM
- TGI [50]: 4.85 µM
- GI50 [51]: 1.75 µM
- TGI [51]: 3.52 µM
- GI50 [52]: 2.06 µM
- TGI [52]: 8.51 µM
- GI50 [53]: 2.39 µM
- TGI [53]: > 100 µM
- GI50 [54]: 7.59 µM
- TGI [54]: > 100 µM
- GI50 [55]: 1.9 µM
- TGI [55]: 4.07 µM
- GI50 [56]: 1.87 µM
- TGI [56]: 4.89 µM
- GI50 [57]: 1.81 µM
- TGI [57]: 5.74 µM
